The test system of data set [1] is mouse. The settings on record: Prenatal developmental toxicity study; swiss albino; Oral; Gavage/Intubation; dose end: 15 GD; group: developmental; systemic / in life observation / body weight / fetal weight.
For data set [2], the system named is rabbit. The settings on record: Prenatal developmental toxicity study, new zealand white, Oral, Gavage/Intubation, dose end: 19 GD.
In data set [3] the test system is mouse. The settings on record: Combined chronic toxicity/carcinogenicity, cd1, Oral, Feed, dose end: 95 week, group: systemic.
The subject of data set [4] is dog. As to conditions: Chronic toxicity; beagle; Oral; Feed; dose end: 12 month; group: systemic; systemic / hematology / erythrocyte (rbc) count differential / erythrocyte (rbc) + systemic / hematology / hematocrit (hct) / hematocrit (….
The subject of data set [5] is rat. The settings on record: Subchronic oral toxicity in rodents, sprague dawley, Feed, dose end: 13 week, group: systemic, systemic / hematology / leukocyte (wbc) count differential / leukocyte (wbc) + systemic / in life observation / body weight / body weight ….
Data set [6] relates to dog. The settings on record: Subchronic oral toxicity in nonrodent, beagle, Feed, dose end: 13 week, group: systemic.
The test system of data set [7] is rat. The settings on record: Combined chronic toxicity/carcinogenicity, sprague dawley, Oral, Feed, dose end: 104 week, group: systemic.
The subject of data set [8] is rat. As to conditions: Prenatal developmental toxicity study, sprague dawley, Oral, Gavage/Intubation, dose end: 15 GD.
The test system of another data set is primate. As to conditions: Subchronic oral toxicity in nonrodent, macaque, Gavage/Intubation, dose end: 90 day, group: systemic, systemic / in life observation / clinical signs / defecation (diarrhea) + systemic / in life observation / clinical signs / emesis.
Data set [9] deals with rat. The settings on record: Multigenerational reproductive toxicity study, sprague dawley, Oral, Gavage/Intubation, dose end: 1 generation.
For data set [10], the system named is rabbit. The settings on record: Prenatal developmental toxicity study; new zealand white; Oral; Gavage/Intubation; dose end: 18 GD; group: maternal; systemic / in life observation / body weight / body weight gain + systemic / in life observation / clinical signs / [other] + systemic / in ….
The subject of data set [11] is rat. As to conditions: Prenatal developmental toxicity study; wistar; Injection; Intraperitoneal; dose end: 18 GD; group: developmental; developmental / developmental malformation / placenta / size + systemic / in life observation / body weight / fetal weight.
Data set [12] has as its system rat. As to conditions: Prenatal developmental toxicity study; wistar; Injection; Intraperitoneal; dose end: 18 GD; group: maternal; reproductive / reproductive performance / resorptions / resorptions + reproductive / reproductive performance / reproductive performance ….
Data set [13] concerns rat. The settings on record: Prenatal developmental toxicity study; sprague dawley; Injection; Intraperitoneal; dose end: 20 GD; group: maternal; reproductive / reproductive performance / reproductive performance other / runts + systemic / in life observation / body weight / body ….
The test system of data set [14] is rabbit. The settings on record: Prenatal developmental toxicity study, new zealand white, Injection, Intravenous, dose end: 15 GD.
[15] abbreviates: group: developmental, developmental / developmental malformation / other / other + systemic / in life observation / body weight / fetal weight + developmental / ….
The mark [16] stands for this setting: group: maternal, systemic / in life observation / body weight / body weight gain + systemic / in life observation / clinical signs / no feces + systemic / in….
Where [17] appears, read: group: maternal, systemic / in life observation / clinical signs / no feces + systemic / in life observation / clinical signs / soft stools.
Setting [18] is: systemic / in life observation / body weight / body weight + systemic / in life observation / body weight / body weight gain + systemic / in….
The mark [19] stands for this setting: systemic / clinical chemistry / alkaline phosphatase (alp/alk) / alkaline phosphatase (alp/alk) + systemic / clinical chemistry / aspartate ….
Where [20] appears, read: systemic / organ weight / heart / absolute.
Where [21] appears, read: systemic / hematology / leukocyte (wbc) count differential / leukocyte (wbc) + systemic / pathology microscopic / liver / adenoma/carcinoma ….
Where [22] appears, read: group: developmental, developmental / developmental malformation / bone / unossified.
Where [23] appears, read: group: developmental, developmental / developmental malformation / bone / unossified + developmental / developmental malformation / bone / incomplete ossification….
The mark [24] stands for this setting: group: maternal, systemic / in life observation / body weight / body weight + systemic / in life observation / body weight / body weight gain + systemic / in….
The mark [25] stands for this setting: group: offspring, systemic / in life observation / body weight / offspring (pup) weight.
The mark [26] stands for this setting: group: parental, systemic / in life observation / clinical signs / [other].
[27] abbreviates: group: parental, systemic / in life observation / clinical signs / [other] + systemic / in life observation / body weight / body weight gain + systemic / in ….
The mark [28] stands for this setting: group: developmental, developmental / developmental malformation / bone / [other] + developmental / developmental malformation / brain / hydrocephaly + ….
[29] abbreviates: group: maternal, reproductive / reproductive performance / resorptions / resorptions.
Setting [30] is: group: maternal, reproductive / reproductive performance / resorptions / resorptions + reproductive / offspring survival early / live fetuses / live fetuses.

For orientation: LOAEL means the lowest dose or exposure tested at which an adverse effect was seen. By NOAEL is commonly meant the highest tested level that showed no adverse finding. Take `Nc1ccn([C@H]2CC[C@@H](CO)O2)c(=O)n1` [2',3'-Dideoxycytidine]: in the data set on mouse [1], the LEL turned out to be 500 mg/kg/day, the lowest observed adverse effect level (LOAEL) is > 500 mg/kg/day, the NEL stood at 200 mg/kg/day and the NOAEL is ≥ 500 mg/kg/day.
On to `CCNc1nc(Cl)nc(NCC)n1` [Simazine], for which the LOAEL came to 200 mg/kg/day with rabbit [2] (group: developmental, developmental / developmental malformation / other / other + systemic / in life observation / body weight / fetal weight); 75 mg/kg/day with rabbit [2] (setting [16]); 132 mg/kg/day in the data set with mouse [3] (systemic / in life observation / body weight / body weight + systemic / in life observation / body weight / body weight gain); 3.64 mg/kg/day in the data set on dog [4]; 12.6 mg/kg/day in the data set on rat [5]; 64.3 mg/kg/day in the data set on dog [6] (setting [19]). The LOAEL was determined as 4.17 mg/kg/day with rat [7] (systemic / hematology / leukocyte (wbc) count differential / leukocyte (wbc)), 300 mg/kg/day in the data set on rat [8] (setting [23]) and 300 mg/kg/day in the data set with rat [8] (setting [24]). Also, the LEL in the data set on rabbit [2] (setting [15]) came to 200 mg/kg/day; in the data set on rabbit [2] (setting [17]), 5 mg/kg/day; with mouse [3] (setting [18]), 132 mg/kg/day; in the data set with dog [4], 3.64 mg/kg/day; with rat [5] it was 12.6 mg/kg/day; in the data set with dog [6] (setting [20]), 6.9 mg/kg/day. In addition, the LEL in the data set with rat [7] (systemic / hematology / leukocyte (wbc) count differential / leukocyte (wbc) + systemic / in life observation / body weight / body weight …) was determined as 4.17 mg/kg/day; with rat [8] (setting [22]), 30 mg/kg/day; in the data set with rat [8] (setting [24]), 300 mg/kg/day. The NEL is 75 mg/kg/day with rabbit [2] (setting [15]); < 5 mg/kg/day in the data set on rabbit [2] (setting [17]); 5.3 mg/kg/day in the data set on mouse [3] (setting [18]); 0.76 mg/kg/day in the data set on dog [4]; < 12.6 mg/kg/day in the data set on rat [5]; < 6.9 mg/kg/day with dog [6] (setting [20]). Further, the NEL was 0.41 mg/kg/day with rat [7] (setting [21]), < 30 mg/kg/day in the data set with rat [8] (setting [22]) and 30 mg/kg/day in the data set with rat [8] (setting [24]). Besides, the NOAEL was 75 mg/kg/day with rabbit [2] (setting [15]); 5 mg/kg/day in the data set with rabbit [2] (setting [16]); 5.3 mg/kg/day in the data set on mouse [3] (setting [18]); 0.76 mg/kg/day in the data set on dog [4]; < 12.6 mg/kg/day in the data set on rat [5]; 8.2 mg/kg/day in the data set with dog [6] (setting [19]). Further, the NOAEL with rat [7] (setting [21]) worked out at 0.41 mg/kg/day; in the data set with rat [8] (setting [23]) it was 30 mg/kg/day; with rat [8] (setting [24]), 30 mg/kg/day.
Turning to `COc1ccc2c(c[n+](C)c3c4cc5c(cc4ccc23)OCO5)c1OC.C[n+]1cc2c3c(ccc2c2ccc4cc5c(cc4c21)OCO5)OCO3.[Cl-].[Cl-]` [Chelerythrine chloride mixture with sanguinarine chloride], the LEL was 10 mg/kg/day in the data set with primate, 100 mg/kg/day in the data set with rat [9] (setting [25]), 30 mg/kg/day with rat [9] (setting [26]) and 25 mg/kg/day in the data set with rabbit [10]. For the same molecule, the LOAEL with primate was found to be 10 mg/kg/day; in the data set on rat [9] (setting [25]), 100 mg/kg/day; with rat [9] (setting [26]) it was 30 mg/kg/day; with rabbit [10], 25 mg/kg/day. The NEL with primate was < 10 mg/kg/day; in the data set on rat [9] (setting [25]), 30 mg/kg/day; in the data set on rat [9] (setting [27]), 10 mg/kg/day; in the data set on rabbit [10], 15 mg/kg/day. In addition, the NOAEL with primate was < 10 mg/kg/day; in the data set on rat [9] (setting [25]), 30 mg/kg/day; in the data set with rat [9] (setting [27]), 10 mg/kg/day; with rabbit [10], 15 mg/kg/day.
On to `CN(Cc1cnc2nc(N)nc(N)c2n1)c1ccc(C(=O)N[C@@H](CCC(=O)O)C(=O)O)cc1` [Methotrexate], for which the LEL is 0.5 mg/kg/day in the data set on rat [11]; 0.5 mg/kg/day in the data set with rat [12]; 0.5 mg/kg/day in the data set on rat [13]; 19.2 mg/kg/day with rabbit [14] (setting [28]); 9.6 mg/kg/day with rabbit [14] (setting [29]). For the same molecule, the lowest-observed-adverse-effect level (LOAEL) is > 0.5 mg/kg/day with rat [11]; > 2 mg/kg/day in the data set on rat [12]; > 2 mg/kg/day in the data set on rat [13]; > 19.2 mg/kg/day with rabbit [14] (setting [28]); > 19.2 mg/kg/day in the data set with rabbit [14] (setting [30]). In addition, the NEL was < 0.5 mg/kg/day in the data set with rat [11], < 0.5 mg/kg/day in the data set with rat [12], < 0.5 mg/kg/day with rat [13] and 4.8 mg/kg/day with rabbit [14] (setting [29]). Also, the NOAEL in the data set with rat [11] is ≥ 0.5 mg/kg/day; with rat [12] it was ≥ 2 mg/kg/day; in the data set on rat [13] it was ≥ 2 mg/kg/day; with rabbit [14] (setting [28]), ≥ 19.2 mg/kg/day; in the data set on rabbit [14] (setting [30]) it was ≥ 19.2 mg/kg/day.

The values are drawn from EPA's ToxRefDB 2.
